Patent US20240150377A1, “MODULATORS OF CYSTIC FIBROSIS TRANSMEMBRANE CONDUCTANCE REGULATOR” (VERTEX PHARMACEUTICALS INCORPORATED, priority 2020, published 2024)
pEC50: −log10 of the molar value. Read-outs that look alike come from different tables or passages of the source. Blank lines part the entries; values can stand above or below the compound they belong to.

Target: T1, CFTR (Homo sapiens, UniProt P13569, DEL508-508)
T1 construct: endogenous in cells; host or cells: primary human bronchial epithelial cells from CF subjects (F508del/MF-HBE), differentiated at air-liquid interface
T1 sequence (P13569 with tags, fused parts or gaps DEL508-508): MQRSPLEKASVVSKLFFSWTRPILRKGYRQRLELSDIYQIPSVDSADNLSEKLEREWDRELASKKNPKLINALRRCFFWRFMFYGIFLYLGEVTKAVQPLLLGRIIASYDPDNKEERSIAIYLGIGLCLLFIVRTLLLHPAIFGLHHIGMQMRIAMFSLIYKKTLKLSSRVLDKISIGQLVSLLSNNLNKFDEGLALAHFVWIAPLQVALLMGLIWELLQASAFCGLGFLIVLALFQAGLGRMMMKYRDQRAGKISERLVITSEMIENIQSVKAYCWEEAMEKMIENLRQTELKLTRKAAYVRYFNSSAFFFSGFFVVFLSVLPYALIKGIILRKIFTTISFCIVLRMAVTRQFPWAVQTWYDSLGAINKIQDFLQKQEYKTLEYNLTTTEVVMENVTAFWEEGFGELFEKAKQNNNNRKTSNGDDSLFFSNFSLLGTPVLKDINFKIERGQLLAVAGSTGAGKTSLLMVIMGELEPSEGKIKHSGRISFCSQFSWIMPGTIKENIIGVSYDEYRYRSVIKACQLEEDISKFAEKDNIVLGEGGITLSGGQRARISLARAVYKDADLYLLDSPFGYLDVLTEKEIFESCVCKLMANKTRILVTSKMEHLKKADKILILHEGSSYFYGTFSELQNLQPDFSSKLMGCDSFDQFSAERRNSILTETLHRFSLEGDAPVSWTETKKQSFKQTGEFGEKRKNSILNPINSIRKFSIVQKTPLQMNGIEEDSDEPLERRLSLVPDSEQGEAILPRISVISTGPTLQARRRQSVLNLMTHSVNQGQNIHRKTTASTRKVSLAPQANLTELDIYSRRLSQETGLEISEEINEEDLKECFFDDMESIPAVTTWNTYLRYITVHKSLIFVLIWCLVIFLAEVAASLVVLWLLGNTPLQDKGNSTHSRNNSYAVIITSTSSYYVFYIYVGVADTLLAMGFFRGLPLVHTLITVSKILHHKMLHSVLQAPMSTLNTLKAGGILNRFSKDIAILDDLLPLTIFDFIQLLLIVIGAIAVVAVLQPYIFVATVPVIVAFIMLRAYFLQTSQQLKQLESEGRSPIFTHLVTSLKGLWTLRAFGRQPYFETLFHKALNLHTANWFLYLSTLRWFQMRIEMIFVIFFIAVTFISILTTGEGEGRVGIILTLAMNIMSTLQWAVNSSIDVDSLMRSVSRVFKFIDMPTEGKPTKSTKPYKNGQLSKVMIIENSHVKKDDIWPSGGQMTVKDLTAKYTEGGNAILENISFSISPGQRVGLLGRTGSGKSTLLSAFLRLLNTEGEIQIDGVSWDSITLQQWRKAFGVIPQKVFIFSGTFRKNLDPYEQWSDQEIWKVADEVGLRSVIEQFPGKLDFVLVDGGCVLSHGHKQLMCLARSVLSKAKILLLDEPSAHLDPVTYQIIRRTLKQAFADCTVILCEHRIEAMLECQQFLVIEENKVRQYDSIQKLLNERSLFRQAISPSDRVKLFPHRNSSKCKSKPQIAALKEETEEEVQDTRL
Assay: HBE assay: Ussing chamber assay of CFTR-mediated short-circuit currents
Type: cell-based
Conditions: for pEC50: read-out: HBE EC50
Method in brief: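 CFTR-mediated Isc (μA/cm²) equals the peak response to apical 20 μM forskolin minus the residual after a 20 μM each BPO/GlyH-101/CFTR inhibitor 172 cocktail, recorded in Ussing chambers at Vhold 0 mV, 37 °C, pH 7.4, with 30 μM apical amiloride. Cells were F508del/MF HBE cultures preincubated 18-24 h with corrector (concentration range or 10 μM) plus 1 μM ivacaftor in 20% human serum.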

[1] = Table 13, read-out: HBE Max Activity (%)
[2] = Table 13, at 10 μM, read-out: HBE Activity at 10 μM (%)
[3] = Table 10, read-out: HBE Max activity (%)
[4] = Table 12, read-out: HBE Max Activity (%)
[5] = Table 11, read-out: HBE Max Activity (%)
[6] = Table 12, at 10 μM, read-out: HBE Activity at 10 μM (%)
[7] = HBE assay, 10 μM, read-out: HBE Activity at 10 μM (%)
[8] = HBE assay, read-out: HBE Max activity (%)
[9] = Table 11, at 10 μM, read-out: HBE Activity at 10 μM (%)

- pEC50 (Table 13): > 6.00
- Emax [1]: > 60%
Compound: COc1ccc(F)c(CN2C(=O)c3cccc(c3)S(=O)(=O)Nc3nc(cc(-c4c(C)cccc4C)n3)OC[C@H]2CC(C)(C)C)n1 [Compound 1066]

- activation at 10 µM [2]: > 600%
Compound: Cc1cccc(C)c1-c1cc2nc(n1)NS(=O)(=O)c1cccc(c1)C(=O)N(Cc1cc(N(C)CC(C)(C)C)ccn1)[C@H](CC(C)(C)C)CO2 [Compound 994]

- pEC50 (Table 13): > 6.00
- Emax [1]: > 60%
Compound: Cc1cccc(C)c1-c1cc2nc(n1)NS(=O)(=O)c1cccc(c1)C(=O)N(Cc1nc(N(C)CC(C)(C)C)ccc1F)[C@H](CC(C)(C)C)CO2 [Compound 371]

- pEC50 (Table 10): > 6.00
- Emax [3]: > 60%
Compound: Cc1cccc(C)c1-c1cc2nc(n1)NS(=O)(=O)c1cccc(c1)C(=O)N(Cc1ccc(N(C)C)cn1)[C@H](CC(C)(C)C)CO2 [Compound 503]

- pEC50 (Table 13): > 6.00
- Emax [1]: > 60%
Compound: Cc1cccc(C)c1-c1cc2nc(n1)NS(=O)(=O)c1cccc(c1)C(=O)N(Cc1ncc(OC(C)C)cn1)[C@H](CC1(C(F)(F)F)CC1)CO2 [Compound 1120]

- pEC50 (Table 12): > 6.00
- Emax [4]: > 60%
Compound: Cc1cccc(C)c1-c1cc2nc(n1)NS(=O)(=O)c1cccc(c1)C(=O)N(Cc1ccn(C3CCCC3)n1)[C@H](CC(C)(C)C)CO2 [Compound 460]

- pEC50 (Table 10): > 6.00
- Emax [3]: > 60%
Compound: Cc1ccc2ccccc2c1-c1cc2nc(n1)NS(=O)(=O)c1cccc(c1)C(=O)N(Cc1ccc(N3CCOCC3)cn1)[C@H](CC(C)(C)C)CO2 [Compound 1075]

- pEC50 (Table 11): > 6.00
- Emax [5]: > 60%
Compound: Cc1cccc(C)c1-c1cc2nc(n1)NS(=O)(=O)c1cccc(c1)C(=O)N(Cc1ncccc1N(C)CC(C)(C)C)[C@H](CC(C)(C)C)CO2 [Compound 725]

- pEC50 (Table 12): > 6.00
- Emax [4]: > 60%
Compound: Cc1cccc(C)c1-c1cc2nc(n1)NS(=O)(=O)c1cccc(c1)C(=O)N(Cc1ncc(N3CCC4(COC4)C3)cn1)[C@H](CC(C)(C)C)CO2 [Compound 580]

- activation at 10 µM [6]: > 600%
Compound: Cc1cccc(C)c1-c1cc2nc(n1)NS(=O)(=O)c1cccc(c1)C(=O)N(Cc1cncc(N(C)C(C(=O)O)C(C)C)n1)[C@H](CC(C)(C)C)CO2 (some centres unmarked) [Compound 243]

- pEC50 (Table 13): > 6.00
- Emax [1]: > 60%
Compound: Cc1cccc(C)c1-c1cc2nc(n1)NS(=O)(=O)c1cccc(c1)C(=O)N(Cc1ncc(C3CC4(C3)CC(C)(C)C4)cn1)[C@H](CC(C)(C)C)CO2 [Compound 162]

- pEC50 (Table 12): > 6.00
- Emax [4]: > 60%
Compound: COC1(C)CCN(c2cnc(CN3C(=O)c4cccc(c4)S(=O)(=O)Nc4nc(cc(-c5c(C)cccc5C)n4)OC[C@H]3CC(C)(C)C)nc2)C1 (some centres unmarked) [Compound 543]

- activation at 10 µM [2]: > 600%
Compound: Cc1cccc(C)c1-c1cc2nc(n1)NS(=O)(=O)c1cccc(c1)C(=O)N(CC(=O)N1CCC[C@@H](c3ccccc3)C1)[C@H](CC(C)(C)C)CO2 [Compound 180]

- activation at 10 µM [2]: > 600%
- pEC50 (Table 13): > 6.00
- Emax [1]: > 60%
Compound: Cc1cccc(C)c1-c1cc2nc(n1)NS(=O)(=O)c1cccc(c1)C(=O)N(Cc1cccc(N3CCC34CCOCC4)n1)[C@H](CC(C)(C)C)CO2 [Compound 536]

- activation at 10 µM [7]: > 60%
Compound: Cc1cccc(C)c1-c1cc2nc(n1)NS(=O)(=O)c1cccc(c1)C(=O)N(Cc1ncc(N3CC(C)(C)C3)cn1)[C@H](CCC(C)C)CO2 [Compound 1309, (11R)-12-[[5-(3,3-Dimethylazetidin-1-yl)pyrimidin-2-yl]methyl]-6-(2,6-dimethylphenyl)-11-isopentyl-2,2-dioxo-9-oxa-2λ^6-thia-3,5,12,19-tetrazatricyclo[12.3.1.14,8]nonadeca-1(18),4(19),5,7,14,16-hexaen-13-one]

- pEC50 (HBE assay): > 6.00
- Emax [8]: > 60%
Compound: COC[C@H]1CCN(c2cnc(CN3C(=O)c4cccc(c4)S(=O)(=O)Nc4nc(cc(-c5c(C)cccc5C)n4)OC[C@H]3CC(C)(C)C)nc2)C1 [Compound 1439]

- activation at 10 µM [9]: > 60%
Compound: Cc1cccc(C)c1-c1cc2nc(n1)NS(=O)(=O)c1cccc(c1)C(=O)N(CC1CC(C)(C)OC(C)(C)C1)[C@H](CC(C)(C)C)CO2 [Compound 30, (11R)-6-(2,6-Dimethylphenyl)-11-(2,2-dimethylpropyl)-12-[(2,2,6,6-tetramethyloxan-4-yl)methyl]-9-oxa-2λ^6-thia-3,5,12,19-tetraazatricyclo[12.3.1.14,8]nonadeca-1(18),4,6,8(19),14,16-hexaene-2,2,13-trione]

- pEC50 (HBE assay): > 6.00
- Emax [8]: > 60%
Compound: CCC(C)Oc1cnc(CN2C(=O)c3cccc(c3)S(=O)(=O)Nc3nc(cc(-c4c(C)cccc4C)n3)OC[C@H]2CC(C)(C)C)nc1 (some centres unmarked) [Compound 1345]

- pEC50 (Table 13): > 6.00
- Emax [1]: > 60%
Compound: Cc1cccc(C)c1-c1cc2nc(n1)NS(=O)(=O)c1cccc(c1)C(=O)N(Cc1cccc(N(CC3CC3)C(C)C)n1)[C@H](CC(C)(C)C)CO2 [Compound 235]

- Emax [3]: > 60%
Compound: CC(C)c1cccc(C(C)C)c1-c1cc2nc(n1)NS(=O)(=O)c1cccc(c1)C(=O)N(Cc1ncc(N3CCOCC3)cn1)[C@H](CC(C)(C)C)CO2 [Compound 830]

- pEC50 (Table 13): > 6.00
- Emax [1]: > 60%
Compound: Cc1cccc(C)c1-c1cc2nc(n1)NS(=O)(=O)c1cccc(c1)C(=O)N(Cc1ncc(OC(C)C)cn1)[C@H](CC(C)(C)C(F)(F)F)CO2 [Compound 1121]

- Emax [3]: > 60%
Compound: Cc1cccc(C)c1-c1cc2nc(n1)NS(=O)(=O)c1cccc(c1)C(=O)N(Cc1ccc(N3CCN(C)CC3)cn1)[C@H](CC(C)(C)C)CO2 [Compound 478]

- pEC50 (HBE assay): > 6.00
- Emax [8]: > 60%
Compound: Cc1cccc(C)c1-c1cc2nc(n1)NS(=O)(=O)c1cccc(c1)C(=O)N(Cc1cccc(N(C)C3CCCC3)n1)[C@H](CC(C)(C)C)CO2 [Compound 1355]

- activation at 10 µM [7]: > 60%
Compound: Cc1cccc(C)c1-c1cc2nc(n1)NS(=O)(=O)c1cccc(c1)C(=O)N(Cc1cccc(N(C)CC(C)(C)C3CC3)n1)[C@H](CC(C)(C)C)CO2 [Compound 1421]

- pEC50 (HBE assay): > 6.00
- Emax [8]: > 60%
Compound: CC[C@@H](C)[C@@H]1COc2cc(-c3c(C)cccc3C)nc(n2)NS(=O)(=O)c2cccc(c2)C(=O)N1Cc1ncc(OC(C)C)cn1 [Compound 1473]

- activation at 10 µM [2]: > 600%
Compound: Cc1cccc(C)c1-c1cc2nc(n1)NS(=O)(=O)c1cccc(c1)C(=O)N(Cc1ccc(N3CCCC3=O)cn1)[C@H](CC(C)(C)C)CO2 [Compound 257]

- activation at 10 µM [2]: > 600%
Compound: Cc1cccc(C)c1-c1cc2nc(n1)NS(=O)(=O)c1cccc(c1)C(=O)N(CC(=O)N1Cc3ccccc3C1)[C@H](CC(C)(C)C)CO2 [Compound 168]

- activation at 10 µM [2]: > 600%
Compound: Cc1cccc(C)c1-c1cc2nc(n1)NS(=O)(=O)c1cccc(c1)C(=O)N(CC(=O)N(C)CCN1CCOCC1)[C@H](CC(C)(C)C)CO2 [Compound 226]

- activation at 10 µM [2]: > 600%
Compound: Cc1cccc(C)c1-c1cc2nc(n1)NS(=O)(=O)c1cccc(c1)C(=O)N(CC(=O)N1CCOCC1C(C)C)[C@H](CC(C)(C)C)CO2 (some centres unmarked) [Compound 212]

- activation at 10 µM [9]: > 60%
Compound: Cc1cccc(C)c1-c1cc2nc(n1)NS(=O)(=O)c1cccc(c1)C(=O)N(CC1CC(C)(C)CO1)[C@H](CC(C)(C)C)CO2 (stereo partly drawn) [Compound 21, (11R)-12-[(4,4-Dimethyloxolan-2-yl)methyl]-6-(2,6-dimethylphenyl)-11-(2,2-dimethylpropyl)-9-oxa-2λ^6-thia-3,5,12,19-tetraazatricyclo[12.3.1.14,8]nonadeca-1(17),4(19),5,7,14(18),15-hexaene-2,2,13-trione]

- pEC50 (Table 11): 5.52 to 6.00
- Emax [5]: > 60%
Compound: Cc1cccc(C)c1-c1cc2nc(n1)NS(=O)(=O)c1cccc(c1)C(=O)N(Cc1cnc(C3CCOCC3)cn1)[C@H](CC(C)(C)C)CO2 [Compound 889]

- pEC50 (Table 13): > 6.00
- Emax [1]: > 60%
Compound: Cc1cccc(C)c1-c1cc2nc(n1)NS(=O)(=O)c1cccc(c1)C(=O)N(Cc1ccc(C3CC3)cn1)[C@H](CC(C)(C)C)CO2 [Compound 252]

- Emax [3]: > 60%
Compound: Cc1cccc(C)c1-c1nc2nc(c1C)OC[C@@H](CC(C)(C)C)N(CC1CCCO1)C(=O)c1cccc(c1)S(=O)(=O)N2 (some centres unmarked) [Compound 836]

- pEC50 (Table 10): > 6.00
- Emax [3]: > 60%
Compound: Cc1cccc(C)c1-c1cc2nc(n1)NS(=O)(=O)c1cccc(c1)C(=O)N(Cc1ncccc1N(C)C)[C@H](CC(C)(C)C)CO2 [Compound 379]

- pEC50 (Table 13): > 6.00
- Emax [1]: > 60%
Compound: Cc1cccc(C)c1-c1cc2nc(n1)NS(=O)(=O)c1cccc(c1)C(=O)N(Cc1nccc(N(C)C3CCC(C)(C)CC3)n1)[C@H](CC(C)(C)C)CO2 [Compound 435]

- activation at 10 µM (Table 10, at 10 μM, read-out: HBE activity at 10 (μM) (%)): > 60%
Compound: Cc1cccc(C)c1-c1cc2nc(n1)NS(=O)(=O)c1cccc(c1)C(=O)N(Cc1c(C)nn(C(C)(C)C)c1C)[C@H](CC(C)(C)C)CO2 [Compound 482]

- pEC50 (HBE assay): > 6.00
- Emax [8]: > 60%
Compound: Cc1cccc(C)c1-c1cc2nc(n1)NS(=O)(=O)c1cccc(c1)C(=O)N(Cc1ncc(N3CC(F)(F)C3)cn1)[C@H](CC(C)(C)C)CO2 [Compound 1444]

- activation at 10 µM [7]: > 60%
Compound: COC[C@@]1(C)CCCN1c1cccc(CN2C(=O)c3cccc(c3)S(=O)(=O)Nc3nc(cc(-c4c(C)cccc4C)n3)OC[C@H]2CC(C)(C)C)n1 [Compound 1510]

- pEC50 (Table 10): > 6.00
- Emax [3]: > 60%
Compound: COc1ncc(-c2ccc(CN3C(=O)c4cccc(c4)S(=O)(=O)Nc4nc(cc(-c5c(C)cccc5C)n4)OC[C@H]3CC(C)(C)C)cc2)cn1 [Compound 783]

- activation at 10 µM [7]: > 60%
Compound: CC(=O)Nc1cnc(CN2C(=O)c3cccc(c3)S(=O)(=O)Nc3nc(cc(-c4c(C)cccc4C)n3)OC[C@H]2CC(C)(C)C)nc1 [Compound 1513]

- activation at 10 µM [6]: > 600%
Compound: Cc1cccc(C)c1-c1cc2nc(n1)NS(=O)(=O)c1cccc(c1)C(=O)N(Cc1nc3ccccn3c1C)[C@H](CC(C)(C)C)CO2 [Compound 700]
